Results published in BigSolDB 2.1.

Cc1cc(C)[nH]n1
solubility (mole fraction)
Details | in acetone | in acetonitrile | in ethanol | in ethyl acetate | in isopropanol | in methanol | in n-butanol | in n-propanol | in toluene
283.15 K | 0.0625 | 0.0276 | 0.12 | 0.0508 | 0.115 | 0.107 | 0.133 | 0.123 | 0.0339
285.65 K | 0.0691 | 0.0312 | 0.127 | 0.0578 | 0.121 | 0.112 | 0.14 | 0.13 | 0.0382
288.15 K | 0.0757 | 0.0359 | 0.133 | 0.0663 | 0.128 | 0.118 | 0.149 | 0.137 | 0.045
290.65 K | 0.0838 | 0.0408 | 0.14 | 0.077 | 0.134 | 0.123 | 0.158 | 0.145 | 0.0517
293.15 K | 0.0935 | 0.0455 | 0.148 | 0.0881 | 0.142 | 0.131 | 0.166 | 0.152 | 0.0593
295.65 K | 0.105 | 0.0508 | 0.155 | 0.1 | 0.149 | 0.137 | 0.176 | 0.16 | 0.0677
298.15 K | 0.116 | 0.0568 | 0.163 | 0.113 | 0.157 | 0.143 | 0.187 | 0.167 | 0.0769
300.65 K | 0.129 | 0.0635 | 0.171 | 0.128 | 0.164 | 0.15 | 0.199 | 0.175 | 0.0863
303.15 K | 0.143 | 0.0722 | 0.179 | 0.144 | 0.171 | 0.158 | 0.211 | 0.184 | 0.0979
305.65 K | 0.16 | 0.0806 | 0.187 | 0.161 | 0.18 | 0.165 | 0.224 | 0.194 | 0.114
308.15 K | 0.175 | 0.0916 | 0.196 | 0.18 | 0.19 | 0.173 | 0.237 | 0.203 | 0.133
310.65 K | 0.194 | 0.102 | 0.205 | 0.199 | 0.199 | 0.18 | 0.251 | 0.213 | 0.151
313.15 K | 0.213 | 0.116 | 0.217 | 0.223 | 0.211 | 0.19 | 0.265 | 0.226 | 0.171
